Data set [1] has as its target Nuclear factor NF-kappa-B complex (Homo sapiens) (UniProt Q00653+P19838+Q04206). In words: Inhibition of TNFalpha activated NF-kappaB mediated transactivation of HIV-1 LTR Luc in 5.1 cells at 100 uM. The class given is functional, cell-based.
Data set [2] concerns Human immunodeficiency virus. In words: Specificity against NF-kappaB and Tat proteins assessed by activity in Hela Tet-ON assay. The class given is functional.
Data set [3] concerns the target T1, Protein Tat (Human immunodeficiency virus type 1 group M subtype B (isolate PCV12)(HIV-1)) (UniProt P04326).
T1 sequence (whole entry): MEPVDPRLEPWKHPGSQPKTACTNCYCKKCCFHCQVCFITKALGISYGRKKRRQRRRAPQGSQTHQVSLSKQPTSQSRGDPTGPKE
In words: Inhibition of Tat activity in HeLa cells transfected with Tat-Luc at 100 uM. The class given is functional, cell-based.

The subject of data set [4] is Human immunodeficiency virus. In words: Inhibition of HIV replication by recombinant virus assay. The format is functional, organism-based. The conditions noted are these: Human immunodeficiency virus 1.
Data set [5] can be described thus: Cytotoxicity by Propidium Iodide staining.
Data set [6] relates to Human immunodeficiency virus. The experiment in a line: Ratio of cytotoxic activity to anti HIV activity. The class given is functional.

Activity calls are given as the source filed them. The rule behind the calls is not given here.

The source of these data is ChEMBL document CHEMBL1138976, “Anti-HIV activity of stilbene-related heterocyclic compounds” (Bioorg Med Chem Lett, 2006).

Nuclear factor NF-kappa-B complex (Homo sapiens), sequence (P19838 whole entry, looked up): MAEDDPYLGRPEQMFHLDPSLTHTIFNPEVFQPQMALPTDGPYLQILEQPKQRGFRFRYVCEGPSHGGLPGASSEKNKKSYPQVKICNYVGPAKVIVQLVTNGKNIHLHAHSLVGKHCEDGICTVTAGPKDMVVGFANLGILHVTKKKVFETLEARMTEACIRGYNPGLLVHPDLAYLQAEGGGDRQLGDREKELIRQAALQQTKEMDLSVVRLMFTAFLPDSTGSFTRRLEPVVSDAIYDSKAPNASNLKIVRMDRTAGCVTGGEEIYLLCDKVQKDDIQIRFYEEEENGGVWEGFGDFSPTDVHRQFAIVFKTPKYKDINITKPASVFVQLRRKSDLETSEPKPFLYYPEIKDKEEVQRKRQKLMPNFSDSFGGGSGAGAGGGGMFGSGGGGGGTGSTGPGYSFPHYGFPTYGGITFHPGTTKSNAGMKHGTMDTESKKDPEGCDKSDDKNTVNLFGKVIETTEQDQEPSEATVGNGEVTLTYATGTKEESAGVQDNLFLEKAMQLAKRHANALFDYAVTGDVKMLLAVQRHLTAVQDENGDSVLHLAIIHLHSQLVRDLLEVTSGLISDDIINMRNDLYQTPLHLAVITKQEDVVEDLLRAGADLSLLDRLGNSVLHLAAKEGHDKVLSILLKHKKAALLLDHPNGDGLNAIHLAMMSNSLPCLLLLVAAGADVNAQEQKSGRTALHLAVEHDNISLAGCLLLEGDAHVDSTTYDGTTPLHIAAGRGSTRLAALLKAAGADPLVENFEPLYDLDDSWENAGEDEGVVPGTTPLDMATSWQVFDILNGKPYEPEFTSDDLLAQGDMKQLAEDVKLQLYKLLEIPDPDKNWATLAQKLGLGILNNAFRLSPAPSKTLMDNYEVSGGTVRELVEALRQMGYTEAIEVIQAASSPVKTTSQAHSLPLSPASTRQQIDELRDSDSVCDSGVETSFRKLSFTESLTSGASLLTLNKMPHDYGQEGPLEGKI
Nuclear factor NF-kappa-B complex (Homo sapiens), sequence (Q00653 whole entry, looked up): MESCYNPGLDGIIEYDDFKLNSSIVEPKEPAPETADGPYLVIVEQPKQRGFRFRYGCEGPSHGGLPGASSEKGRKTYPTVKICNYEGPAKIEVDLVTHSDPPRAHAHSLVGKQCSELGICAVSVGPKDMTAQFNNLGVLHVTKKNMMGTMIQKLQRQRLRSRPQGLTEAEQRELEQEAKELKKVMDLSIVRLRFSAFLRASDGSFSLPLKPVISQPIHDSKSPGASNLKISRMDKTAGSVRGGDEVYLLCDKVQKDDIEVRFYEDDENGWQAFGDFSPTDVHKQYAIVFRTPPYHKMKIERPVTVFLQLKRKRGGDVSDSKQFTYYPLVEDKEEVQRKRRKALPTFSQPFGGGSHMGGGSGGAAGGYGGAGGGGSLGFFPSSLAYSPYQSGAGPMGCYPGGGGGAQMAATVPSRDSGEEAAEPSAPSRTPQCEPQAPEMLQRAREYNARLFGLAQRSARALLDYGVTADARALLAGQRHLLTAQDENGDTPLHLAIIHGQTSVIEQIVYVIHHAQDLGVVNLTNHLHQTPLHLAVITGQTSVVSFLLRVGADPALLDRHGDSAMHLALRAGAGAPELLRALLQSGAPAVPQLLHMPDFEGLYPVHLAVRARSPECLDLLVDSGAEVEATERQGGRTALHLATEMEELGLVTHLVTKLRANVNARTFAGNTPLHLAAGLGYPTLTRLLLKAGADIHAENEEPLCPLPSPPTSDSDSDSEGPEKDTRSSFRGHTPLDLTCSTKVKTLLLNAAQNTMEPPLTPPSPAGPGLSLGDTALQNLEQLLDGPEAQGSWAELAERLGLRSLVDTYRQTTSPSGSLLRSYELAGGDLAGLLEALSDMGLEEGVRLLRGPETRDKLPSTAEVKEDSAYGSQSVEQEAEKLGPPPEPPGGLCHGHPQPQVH
Nuclear factor NF-kappa-B complex (Homo sapiens), sequence (Q04206 whole entry, looked up): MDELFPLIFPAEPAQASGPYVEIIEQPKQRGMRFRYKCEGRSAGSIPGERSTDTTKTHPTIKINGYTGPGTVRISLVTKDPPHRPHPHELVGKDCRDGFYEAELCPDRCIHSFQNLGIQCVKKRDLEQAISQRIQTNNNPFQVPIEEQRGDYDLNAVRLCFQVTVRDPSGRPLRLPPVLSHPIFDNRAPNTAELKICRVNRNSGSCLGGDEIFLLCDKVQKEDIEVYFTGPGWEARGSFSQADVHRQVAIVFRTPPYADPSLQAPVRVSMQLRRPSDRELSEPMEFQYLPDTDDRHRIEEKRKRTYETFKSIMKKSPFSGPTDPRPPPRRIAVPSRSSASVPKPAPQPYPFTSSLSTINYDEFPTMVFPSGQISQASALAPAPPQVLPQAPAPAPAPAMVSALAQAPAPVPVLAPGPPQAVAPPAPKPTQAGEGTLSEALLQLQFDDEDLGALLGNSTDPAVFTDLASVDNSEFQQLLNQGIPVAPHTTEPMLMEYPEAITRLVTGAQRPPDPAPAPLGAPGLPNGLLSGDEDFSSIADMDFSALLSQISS

Broadly, the inhibition is the drop in the measured response relative to a control, in per cent. What is called IC50 is the concentration needed to halve the response being measured. A word on the CC50: it is the concentration giving 50% cytotoxicity. Read a low CC50 as greater toxicity to the cells. In the case of `O=C1O/C(=C\c2ccc(Cl)cc2)c2ccccc21`, the inhibition worked out at 84.8% in data set [1] and 84.6% in data set [3]. Moreover, in data set [2], the result was Active. In addition, in data set [4], the IC50 was 23.8 µM. Besides, the CC50 in data set [5] was above 195 µM. Also, the “Ratio CC50/IC50” value in data set [6] is recorded as above 8.2.
Take `COc1ccc(CC2(O)c3cc(Cl)c(Cl)cc3C3=NCCN32)cc1` (stereo not given): the inhibition in data set [1] is 100%; in data set [3], 75.3%. Besides, in data set [2], the outcome was inactive. The IC50 in data set [4] was 27.6 µM. Further, the CC50 in data set [5] was 44.1 µM. In data set [6], the “Ratio CC50/IC50” value is given as 1.6.
As to `CC(C)(C)n1nc(Cc2ccc(Cl)cc2)c2ccccc2c1=O`, the inhibition is 82.1% in data set [1] and 11.5% in data set [3]. In addition, the result in data set [2] was inactive. The concentration for half-maximal inhibition (IC50) in data set [4] was found to be 12.8 µM. Also, the 50% cytotoxic concentration (CC50) in data set [5] came to 72.1 µM. In data set [6], the “Ratio CC50/IC50” value is reported as 5.6.
Consider `COc1cc(Cc2nnc(O)c3ccccc23)cc(OC)c1OC`, for which the inhibition in data set [1] is 96.5%; in data set [3], below 0%. In data set [2], the outcome was inactive. Besides, the IC50 in data set [4] worked out at 51.7 µM. In data set [5], half-maximal cytotoxicity (CC50) was put at 135 µM. Moreover, the Ratio CC50/IC50 in data set [6] worked out at 2.6.
On to `Cn1nc(Cc2ccccc2)c2ccccc2c1=O`, for which the inhibition stood at 19.4% in data set [1] and 11.4% in data set [3]. Moreover, in data set [4], the IC50 turned out to be 47.5 µM. This compound also showed a CC50 in data set [5] above 156 µM. For the same compound, the “Ratio CC50/IC50” value in data set [6] is on record as above 3.3.
In the case of `COc1ccc(/C=C2\OC(=O)c3ccccc32)cc1`, the inhibition in data set [1] came out at 87.6%; in data set [3], 74%. Moreover, in data set [2], the result was Active. Also, in data set [4], the IC50 was 14.3 µM.
As for `O=C1O/C(=C\c2cccc3ccccc23)c2ccccc21`, the inhibition was below 0% in data set [1] and 6.5% in data set [3]. Besides, the IC50 in data set [4] was above 50 µM.
For `COc1ccc(CC2(O)c3ccccc3C3=NCCCN32)cc1` (stereo not given), the inhibition in data set [1] was below 0%; in data set [3], 3.8%. Moreover, the IC50 in data set [4] is 74.2 µM. Further, the CC50 in data set [5] is above 162 µM. For the same compound, the “Ratio CC50/IC50” value in data set [6] is above 2.2.
Taken in the same sequence, the figures for `COc1ccc(Cc2nnc(O)c3ccccc23)cc1` were 12.6%, below 0%, 15.7 µM, above 149 µM and above 9.5.
In the case of `O=c1c2ccccc2c(Cc2ccc(Cl)cc2)nn1-c1ccc(Br)cc1`, the inhibition in data set [1] and in data set [3] was below 0% each time. Besides, in data set [4], the IC50 worked out at 88.1 µM. In data set [5], this compound yielded a CC50 of 91.8 µM. Also, the “Ratio CC50/IC50” value in data set [6] was determined as 1.
For `Cc1ccc2c(c1)/C(=C/c1ccc(Cl)cc1)OC2=O`, the inhibition in data set [1] was 96.8%; in data set [3] it was 91.8%. Besides, the result in data set [2] was Active. Moreover, the IC50 in data set [4] came to 15.8 µM.
`Cn1nc(Cc2ccc(Cl)cc2Cl)c2ccccc2c1=O`: the inhibition is below 0% in data set [1] and 14% in data set [3]. Also, in data set [4], the IC50 turned out to be 18.8 µM. Besides, half-maximal cytotoxicity in data set [5] (CC50) was put at 112 µM. The “Ratio CC50/IC50” value in data set [6] came to 6.
Taken in the same sequence, the figures for `O=C1O/C(=C\c2ccc(Cl)cc2)c2cc(Cl)c(Cl)cc21` were 3.2%, below 0%, 45.6 µM, above 154 µM and above 3.4.
Taken in the same sequence, the figures for `Oc1nnc(Cc2ccc(Cl)c(Cl)c2)c2cc(Cl)c(Cl)cc12` were 14.9%, 28.4%, 19.5 µM, 64.7 µM and 3.3.
Take `OC1(Cc2ccc(Cl)cc2)c2ccccc2C2=NCCN21` (stereo not given): the figures for the inhibition in data set [1] and in data set [3] were below 0% and 38.4%, respectively. Besides, in data set [2], the result was inactive. For the same compound, the IC50 in data set [4] amounted to 71 µM. In data set [5], this compound registered a CC50 above 168 µM.
